In publication PMC2263054, “Functional evolution of the vitamin D and pregnane X receptors” (BMC Evolutionary Biology, 2007):
Where a name gives a salt, the structure may show the parent alone. Read-outs that look alike come from different tables or passages of the source.

Assays:
Type in all cases: cell-based
Zebrafish VDR = biological target: T1, Zebrafish VDR (Danio rerio, UniProt Q9PTN2); assay: luciferase reporter transactivation assay in HepG2-NTCP cells, GAL4/zfVDR LBD chimera with tk-UAS-Luc; settings: screening for activators, at least three concentrations of each drug
T1 sequence (Q9PTN2 121-453): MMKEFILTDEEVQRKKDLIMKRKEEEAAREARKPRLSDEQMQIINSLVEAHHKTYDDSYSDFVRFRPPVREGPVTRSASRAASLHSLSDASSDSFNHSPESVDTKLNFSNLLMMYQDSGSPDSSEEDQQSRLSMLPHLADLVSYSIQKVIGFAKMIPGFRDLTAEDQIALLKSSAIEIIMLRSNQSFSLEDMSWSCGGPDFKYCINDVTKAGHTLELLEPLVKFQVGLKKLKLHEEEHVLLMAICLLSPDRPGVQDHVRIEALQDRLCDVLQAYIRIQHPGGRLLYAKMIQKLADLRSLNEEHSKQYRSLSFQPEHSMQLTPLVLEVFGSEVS

Sea lamprey VDR = biological target: T2, Sea lamprey VDR (Petromyzon marinus, UniProt Q7ZZY9)
T2 sequence (Q7ZZY9 92-406): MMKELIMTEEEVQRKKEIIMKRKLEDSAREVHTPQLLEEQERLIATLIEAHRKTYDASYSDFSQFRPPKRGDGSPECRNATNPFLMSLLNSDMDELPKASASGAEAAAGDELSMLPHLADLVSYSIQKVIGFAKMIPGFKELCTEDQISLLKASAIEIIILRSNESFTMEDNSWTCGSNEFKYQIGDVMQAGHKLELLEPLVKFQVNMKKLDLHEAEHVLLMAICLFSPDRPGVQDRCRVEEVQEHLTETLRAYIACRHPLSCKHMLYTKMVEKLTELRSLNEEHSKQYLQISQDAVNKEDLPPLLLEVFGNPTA

Xenopus laevis VDR = biological target: T3, Xenopus laevis VDR (Xenopus laevis, UniProt O13124); assay: luciferase reporter transactivation assay in HepG2-NTCP cells, GAL4/xlVDR LBD chimera with tk-UAS-Luc; settings: screening for activators, at least three concentrations of each drug
T3 sequence (O13124 90-422): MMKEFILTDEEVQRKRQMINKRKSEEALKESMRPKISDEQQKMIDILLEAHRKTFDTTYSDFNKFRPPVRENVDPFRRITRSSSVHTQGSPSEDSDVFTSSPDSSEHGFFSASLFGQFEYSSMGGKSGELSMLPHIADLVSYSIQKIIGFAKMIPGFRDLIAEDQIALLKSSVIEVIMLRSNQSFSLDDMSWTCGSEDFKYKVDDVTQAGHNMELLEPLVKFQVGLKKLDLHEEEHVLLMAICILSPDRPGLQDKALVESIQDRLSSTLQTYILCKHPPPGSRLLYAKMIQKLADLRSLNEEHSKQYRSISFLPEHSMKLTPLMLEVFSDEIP

[1] = screening for activators, at least three concentrations of each drug

C[C@H](CCC(=O)O)[C@H]1CC[C@H]2[C@@H]3C[C@H](O)[C@@H]4C[C@H](O)CC[C@]4(C)[C@H]3CC[C@]12C [5b-Cholanic acid-3a,6a-diol]
Effect on zebrafish VDR (Zebrafish VDR): No effect | Effect on sea lamprey VDR (Sea lamprey VDR): No effect | Effect on Xenopus laevis VDR (Xenopus laevis VDR): No effect

C[C@H](CCC(=O)O)[C@H]1CC[C@H]2[C@@H]3C[C@@H](O)[C@@H]4C[C@H](O)CC[C@]4(C)[C@H]3CC[C@]12C [5b-Cholanic acid-3a,6b-diol]
Effect on zebrafish VDR (Zebrafish VDR): No effect | Effect on sea lamprey VDR (Sea lamprey VDR): No effect | Effect on Xenopus laevis VDR (Xenopus laevis VDR): No effect

CC(=O)[C@H]1CC[C@H]2[C@@H]3CC[C@@H]4CC(=O)CC[C@]4(C)[C@H]3CC[C@]12C [5b-Pregnan-3,20-dione]
Effect on zebrafish VDR (Zebrafish VDR): No effect | Effect on sea lamprey VDR (Sea lamprey VDR; [1]): No effect | Effect on Xenopus laevis VDR (Xenopus laevis VDR): No effect

C[C@H](O)[C@H]1CC[C@H]2[C@@H]3CC[C@@H]4C[C@H](O)CC[C@]4(C)[C@H]3CC[C@]12C [5b-Pregnan-3a,20a-diol]
Effect on zebrafish VDR (Zebrafish VDR): No effect | Effect on sea lamprey VDR (Sea lamprey VDR; [1]): No effect | Effect on Xenopus laevis VDR (Xenopus laevis VDR): No effect

C[C@@H](O)[C@H]1CC[C@H]2[C@@H]3CC[C@@H]4C[C@H](O)CC[C@]4(C)[C@H]3CC[C@]12C [5b-Pregnan-3a,20b,diol]
Effect on zebrafish VDR (Zebrafish VDR): No effect | Effect on sea lamprey VDR (Sea lamprey VDR; [1]): No effect | Effect on Xenopus laevis VDR (Xenopus laevis VDR): No effect

CC(=O)[C@H]1CC[C@H]2[C@@H]3CC[C@@H]4C[C@H](O)CC[C@]4(C)[C@H]3CC[C@]12C [5b-Pregnan-3a-ol-20-one]
Effect on zebrafish VDR (Zebrafish VDR): No effect | Effect on sea lamprey VDR (Sea lamprey VDR; [1]): No effect | Effect on Xenopus laevis VDR (Xenopus laevis VDR): No effect

CC(C)CCC[C@@H](C)[C@H]1CC[C@H]2[C@@H]3CC[C@@H]4C[C@H](OS(=O)(=O)O)CC[C@]4(C)[C@H]3CC[C@]12C [5b-cholestan-3a-ol sulfate]
Effect on zebrafish VDR (Zebrafish VDR): No effect | Effect on sea lamprey VDR (Sea lamprey VDR; [1]): No effect | Effect on Xenopus laevis VDR (Xenopus laevis VDR): No effect

CC(=O)[C@H]1CC[C@H]2[C@@H]3CC[C@@H]4C[C@H](OS(=O)(=O)O)CC[C@]4(C)[C@H]3CC[C@]12C [5b-pregnan-3a-ol-20-one sulfate]
Effect on zebrafish VDR (Zebrafish VDR): No effect | Effect on sea lamprey VDR (Sea lamprey VDR; [1]): No effect | Effect on Xenopus laevis VDR (Xenopus laevis VDR): No effect

C[C@]12CC[C@H]3[C@@H](C[C@H](F)C4=CC(=O)CC[C@@]43C)[C@@H]1CC[C@@H]2O [6a-Fluorotestosterone]
Effect on zebrafish VDR (Zebrafish VDR): No effect | Effect on sea lamprey VDR (Sea lamprey VDR; [1]): No effect | Effect on Xenopus laevis VDR (Xenopus laevis VDR): No effect

C[C@H](CCC(=O)O)[C@H]1CC[C@H]2[C@@H]3C(=O)C[C@@H]4C[C@H](O)CC[C@]4(C)[C@H]3CC(=O)[C@]12C [7,12-Diketolithocholic acid]
Effect on zebrafish VDR (Zebrafish VDR): No effect | Effect on sea lamprey VDR (Sea lamprey VDR; [1]): No effect | Effect on Xenopus laevis VDR (Xenopus laevis VDR): No effect

C[C@H](CCC(=O)O)[C@H]1CC[C@H]2[C@@H]3C(=O)C[C@@H]4C[C@H](O)CC[C@]4(C)[C@H]3C[C@H](O)[C@]12C [7-Ketodeoxycholic acid]
Effect on zebrafish VDR (Zebrafish VDR): No effect | Effect on sea lamprey VDR (Sea lamprey VDR; [1]): No effect | Effect on Xenopus laevis VDR (Xenopus laevis VDR): No effect

C[C@H](CCC(=O)O)[C@H]1CC[C@H]2[C@@H]3C(=O)C[C@@H]4C[C@H](O)CC[C@]4(C)[C@H]3CC[C@]12C [7-Ketolithocholic acid]
Effect on zebrafish VDR (Zebrafish VDR): No effect | Effect on sea lamprey VDR (Sea lamprey VDR; [1]): No effect | Effect on Xenopus laevis VDR (Xenopus laevis VDR): No effect

CC1=C(/C=C/C(C)=C\C=C\C(C)=C\C(=O)O)C(C)(C)CCC1 [9-cis Retinoic acid]
Effect on zebrafish VDR (Zebrafish VDR): No effect | Effect on sea lamprey VDR (Sea lamprey VDR; [1]): No effect | Effect on Xenopus laevis VDR (Xenopus laevis VDR): No effect

C[C@H](CCC(=O)O)[C@H]1CC[C@H]2[C@@H]3CC[C@@H]4C[C@H](O)CC[C@]4(C)[C@H]3CC(=O)[C@]12C [12-Ketolithocholic acid]
Effect on zebrafish VDR (Zebrafish VDR): No effect | Effect on sea lamprey VDR (Sea lamprey VDR; [1]): No effect | Effect on Xenopus laevis VDR (Xenopus laevis VDR): No effect

CCCCC[C@H](O)/C=C/C=C\CCCCCCCC(=O)O [13(S)-Hydroxy-9Z,11E-octadecadienoic acid]
Effect on zebrafish VDR (Zebrafish VDR): No effect | Effect on sea lamprey VDR (Sea lamprey VDR; [1]): No effect | Effect on Xenopus laevis VDR (Xenopus laevis VDR): No effect

CC1=C(/C=C/C(C)=C/C=C/C(C)=C\C(=O)O)C(C)(C)CCC1 [13-cis Retinoic acid]
Effect on zebrafish VDR (Zebrafish VDR): No effect | Effect on sea lamprey VDR (Sea lamprey VDR; [1]): No effect | Effect on Xenopus laevis VDR (Xenopus laevis VDR): No effect

CC1=C(/C=C/C(C)=C/C=C/C(C)=C\CO)C(C)(C)CCC1 [13-cis-Retinol]
Effect on zebrafish VDR (Zebrafish VDR): No effect | Effect on sea lamprey VDR (Sea lamprey VDR; [1]): No effect | Effect on Xenopus laevis VDR (Xenopus laevis VDR): No effect

CCCCC/C=C/C=C1/C(=O)C=C[C@@H]1C/C=C\CCCC(=O)O [15-Deoxy-D12,14-prostaglandin J2]
Effect on zebrafish VDR (Zebrafish VDR): No effect | Effect on sea lamprey VDR (Sea lamprey VDR; [1]): No effect | Effect on Xenopus laevis VDR (Xenopus laevis VDR): No effect

C[C@]12CCC(=O)C[C@@H]1CC[C@@H]1[C@@H]2CC[C@]2(C)C=CC[C@@H]12 [16,(5a)-Androsten-3-one]
Effect on zebrafish VDR (Zebrafish VDR): No effect | Effect on sea lamprey VDR (Sea lamprey VDR; [1]): No effect | Effect on Xenopus laevis VDR (Xenopus laevis VDR): No effect

C[C@]12CC[C@H](O)C[C@@H]1CC[C@@H]1[C@@H]2CC[C@]2(C)C=CC[C@@H]12 [16,(5a)-Androsten-3b-ol]
Effect on zebrafish VDR (Zebrafish VDR): No effect | Effect on sea lamprey VDR (Sea lamprey VDR; [1]): No effect | Effect on Xenopus laevis VDR (Xenopus laevis VDR): No effect

C[C@]12CC[C@@H]3c4ccc(O)cc4CC[C@H]3[C@@H]1C[C@@H](O)C2=O [16a-Hydroxyestrone]
Effect on zebrafish VDR (Zebrafish VDR): No effect | Effect on sea lamprey VDR (Sea lamprey VDR; [1]): No effect | Effect on Xenopus laevis VDR (Xenopus laevis VDR): No effect

CC(=O)[C@@]1(O)CC[C@H]2[C@@H]3CC=C4C[C@@H](O)CC[C@]4(C)[C@H]3CC[C@@]21C [17-Hydroxypregnenolone]
Effect on zebrafish VDR (Zebrafish VDR): No effect | Effect on sea lamprey VDR (Sea lamprey VDR; [1]): No effect | Effect on Xenopus laevis VDR (Xenopus laevis VDR): No effect

C[C@]12CC[C@@H]3c4ccc(O)cc4CC[C@H]3[C@@H]1CC[C@@H]2O [17b-Estradiol, 17β-estradiol]
Effect on zebrafish VDR (Zebrafish VDR): No effect | Effect on zebrafish VDR (Zebrafish VDR; listed as 17β-estradiol): None of these three VDRs were activated | Effect on sea lamprey VDR (Sea lamprey VDR; [1]): No effect | Effect on sea lamprey VDR (Sea lamprey VDR; screening for activators, at least three concentrations of each drug, listed as 17β-estradiol): None of these three VDRs were activated | Effect on Xenopus laevis VDR (Xenopus laevis VDR): No effect | Effect on Xenopus laevis VDR (Xenopus laevis VDR; listed as 17β-estradiol): None of these three VDRs were activated

C[C@H](CC(=O)O)[C@H]1CC[C@H]2[C@@H]3CC[C@@H]4C[C@H](O)CC[C@]4(C)[C@H]3C[C@H](O)[C@]12C [23-Nordeoxycholic acid]
Effect on zebrafish VDR (Zebrafish VDR): No effect | Effect on sea lamprey VDR (Sea lamprey VDR; [1]): No effect | Effect on Xenopus laevis VDR (Xenopus laevis VDR): No effect

C[C@H](CC[C@@H]1OC1(C)C)[C@H]1CC[C@H]2[C@@H]3CC=C4C[C@@H](O)CC[C@]4(C)[C@H]3CC[C@]12C [24(S)-,25-Epoxycholesterol]
Effect on zebrafish VDR (Zebrafish VDR): No effect | Effect on sea lamprey VDR (Sea lamprey VDR; [1]): No effect | Effect on Xenopus laevis VDR (Xenopus laevis VDR): No effect

CC(C)[C@@H](O)CC[C@@H](C)[C@H]1CC[C@H]2[C@@H]3CC=C4C[C@@H](O)CC[C@]4(C)[C@H]3CC[C@]12C [24(S)-Hydroxycholesterol]
Effect on zebrafish VDR (Zebrafish VDR): No effect | Effect on sea lamprey VDR (Sea lamprey VDR; [1]): No effect | Effect on Xenopus laevis VDR (Xenopus laevis VDR): No effect

CC(=O)N[C@@H](CSC/C=C(\C)CC/C=C(\C)CCC=C(C)C)C(=O)O [Acetyl-farnesyl-cysteine]
Effect on zebrafish VDR (Zebrafish VDR): No effect | Effect on sea lamprey VDR (Sea lamprey VDR; [1]): No effect | Effect on Xenopus laevis VDR (Xenopus laevis VDR): No effect

CC(=O)N[C@@H](CSC/C=C(\C)CCC=C(C)C)C(=O)O [Acetyl-geranyl-cysteine]
Effect on zebrafish VDR (Zebrafish VDR): No effect | Effect on sea lamprey VDR (Sea lamprey VDR; [1]): No effect | Effect on Xenopus laevis VDR (Xenopus laevis VDR): No effect

CC(=O)N[C@@H](CSC/C=C(\C)CC/C=C(\C)CC/C=C(\C)CCC=C(C)C)C(=O)O [Acetyl-geranylgeranyl-cysteine]
Effect on zebrafish VDR (Zebrafish VDR): No effect | Effect on sea lamprey VDR (Sea lamprey VDR; [1]): No effect | Effect on Xenopus laevis VDR (Xenopus laevis VDR): No effect

COc1cc(C)c(/C=C/C(C)=C/C=C/C(C)=C/C(=O)O)c(C)c1C [Aciretin]
Effect on zebrafish VDR (Zebrafish VDR): No effect | Effect on sea lamprey VDR (Sea lamprey VDR; [1]): No effect | Effect on Xenopus laevis VDR (Xenopus laevis VDR): No effect

C[C@]12CCC(=O)C=C1CC[C@@H]1[C@@H]2[C@@H](O)C[C@]2(C=O)[C@@H](C(=O)CO)CC[C@@H]12 [Aldosterone]
Effect on zebrafish VDR (Zebrafish VDR): No effect | Effect on sea lamprey VDR (Sea lamprey VDR; [1]): No effect | Effect on Xenopus laevis VDR (Xenopus laevis VDR): No effect
